Assay results published in patent US7462600B2, “Macrolides” (Pfizer Inc, priority 2004, dated 2008).
Values after ≈ are worked out from the molar mass of the structure shown. Where two headings read alike, the source gives them in different places.

Legend:
Format in all cases: cell-based
[1] = test system: Streptococcus pneumoniae 1095; details: microtiter broth dilution
Summary of the method: (§1)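 Panel strains, including macrolide-resistant isolates and their susceptible parents where available, are exposed to serial compound dilutions in microtiter trays. Growth inhibition is scored as MIC under NCCLS M100-S14 standards.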

[2] = test system: Streptococcus pneumoniae 1175; details: microtiter broth dilution
Summary of the method: as §1

[3] = test system: Streptococcus pyogenes 1079; experiment: MIC, microtiter broth dilution (NCCLS M100-S14), S. pyogenes 1079 (ermB)
Summary of the method: as §1

[4] = test system: Haemophilus influenzae 1218; experiment: MIC, microtiter broth dilution (NCCLS M100-S14), H. influenzae 1218 (susceptible)
Summary of the method: as §1

[5] = test system: Streptococcus pneumoniae 1016; experiment: MIC, microtiter broth dilution (NCCLS M100-S14), S. pneumoniae 1016 (susceptible)
Summary of the method: as §1

[6] = H. influenzae 1218 (susceptible)
[7] = S. pneumoniae 1016 (susceptible)

Row | SMILES | MIC S. pneumo. 1095 ([1]; S. pneumoniae 1095 (ermB)) [µg/mL] | MIC S. pneumo. 1175 ([2]; S. pneumoniae 1175 (mefA)) [µg/mL] | MIC S. pyogenes 1079 ([3]; S. pyogenes 1079 (ermB)) [µg/mL] | MIC H. influenzae 1218 [4, 6] [µg/mL] | MIC S. pneumo. 1016 [5, 7] [µg/mL] | MIC S. pneumo. 1095 ([1]; Streptococcus pneumoniae 1095) [µg/mL] | MIC S. pneumo. 1175 ([2]; Streptococcus pneumoniae 1175) [µg/mL] | MIC S. pyogenes 1079 ([3]; Streptococcus pyogenes 1079) [µg/mL] | MIC H. influenzae 1218 ([4]; Haemophilus influenzae 1218) [µg/mL] | MIC S. pneumo. 1016 ([5]; Streptococcus pneumoniae 1016) [µg/mL]
1 | CCC1OC(=O)C(C)C(=O)C(C)C(OC2OC(C)CC(N(C)C)C2O)C(C)(OC)CC(C)C(=O)C(C)C2N(CC3CCCN3C(=O)c3ccc4cccnc4c3)C(=O)OC12C.O=CO (stereo not shown) [10.15] | <0.06 | 0.25 | >64.00 | 2 | <0.06 | – | – | – | – | –
2 | CCC1OC(=O)C(C)C(=O)C(C)C(OC2OC(C)CC(N(C)C)C2O)C(C)(OC)CC(C)C(=O)C(C)C2N(C3CN(Cc4cc(OC)nc5ccccc45)C3)C(=O)OC12C (stereo not shown) [Example 1.39, (2-methoxyquinolin-4-yl)methyl] | – | – | – | – | – | <0.06 | 0.25 (≈ 0.298 µM) | 16 (≈ 19.1 µM) | 1 (≈ 1.19 µM) | <0.06
3 | CC[C@H]1OC(=O)[C@H](C)[C@@H](OC(=O)N2CCCC2c2cccc(F)c2)[C@H](C)[C@@H](O[C@@H]2O[C@H](C)C[C@H](N(C)C)[C@H]2O)[C@](C)(OC)C[C@@H](C)C(=O)[C@H](C)[C@H]2N(CC3CN(Cc4c[nH]c5ncccc45)C3)C(=O)O[C@]12C (stereo partly shown) [Example 5.05, 3-descladinosyl-11,12-dideoxy-6-O-methyl-12,11-(oxycarbonyl-(1-((1H-pyrrolo[2,3-b]pyridin-3-yl)-methyl)-(azetidin-3-yl)-methyl)-imino)-3-((2-(3-fluorophenyl)-pyrrolidine)-1-carbonyl)-erythromycin A] | – | – | – | – | – | 2 (≈ 1.99 µM) | 0.5 (≈ 0.497 µM) | 4 (≈ 3.98 µM) | 8 (≈ 7.96 µM) | <0.06
4 | CCC1OC(=O)C(C)C(=O)C(C)C(OC2OC(C)CC(N(C)C)C2O)C(C)(OC)CC(C)C(=O)C(C)C2N(C3CN(S(=O)(=O)c4ccc5nn[nH]c5c4)C3)C(=O)OC12C (stereo not shown) [Example 3.57] | – | – | – | – | – | <0.06 | 8 (≈ 9.42 µM) | 4 (≈ 4.71 µM) | 1 (≈ 1.18 µM) | <0.06
5 | CCC1OC(=O)C(C)C(=O)C(C)C(OC2OC(C)CC(N(C)C)C2O)C(C)(OC)CC(C)C(=O)C(C)C2N(C3CN(S(=O)(=O)c4cccc5cccnc45)C3)C(=O)OC12C (stereo not shown) [Example 3.03, 3-descladinosyl-11,12-dideoxy-O-methyl-3-oxo-12,11-(oxycarbonyl-(1-(quinoline-8-sulfonyl)-azetidin-3-yl)-imino)-erythromycin A] | – | – | – | – | – | <0.06 | <0.06 | 1 (≈ 1.16 µM) | 0.12 (≈ 0.14 µM) | <0.06
6 | CC[C@H]1OC(=O)[C@H](C)C(=O)[C@H](C)[C@@H](O[C@@H]2O[C@H](C)C[C@H](N(C)C)[C@H]2O)[C@](C)(OC)C[C@@H](C)C(=O)[C@H](C)[C@H]2N(CC3(O)CN(Cc4ccc5nccnc5c4)C3)C(=O)O[C@]12C [7.03] | 0.12 (≈ 0.143 µM) | 0.12 (≈ 0.143 µM) | >64.00 | 0.5 (≈ 0.595 µM) | <0.06 | – | – | – | – | –
7 | CCC1OC(=O)C(C)C(=O)C(C)C(OC2OC(C)CC(N(C)C)C2O)C(C)(OC)CC(C)C(=O)C(C)C2N(CC3CN(C(=O)c4cccnc4)C3)C(=O)OC12C (stereo not shown) [4.03] | – | – | – | – | – | 0.39 (≈ 0.496 µM) | 0.78 (≈ 0.991 µM) | >100.00 | 1.56 (≈ 1.98 µM) | 0.02 (≈ 0.0254 µM)
8 | CCC1OC(=O)C(C)C(=O)C(C)C(OC2OC(C)CC(N(C)C)C2O)C(C)(OC)CC(C)C(=O)C(C)C2N(C3CN(C(=O)Nc4cc(-c5cncc(C)c5)n[nH]4)C3)C(=O)OC12C (stereo not shown) [Example 2.08] | – | – | – | – | – | 1 (≈ 1.15 µM) | 16 (≈ 18.4 µM) | 32 (≈ 36.9 µM) | 8 (≈ 9.22 µM) | <0.06
9 | CCC1OC(=O)C(C)C(=O)C(C)C(OC2OC(C)CC(N(C)C)C2O)C(C)(OC)CC(C)C(=O)C(C)C2N(CC3CCN(Cc4nc5ccccc5n4C)C3)C(=O)OC12C (stereo not shown) [11.06] | 2 (≈ 2.38 µM) | 2 (≈ 2.38 µM) | >64.00 | 4 (≈ 4.76 µM) | <0.06 | – | – | – | – | –
10 | CCC1OC(=O)C(C)C(=O)C(C)C(OC2OC(C)CC(N(C)C)C2O)C(C)(OC)CC(C)C(=O)C(C)C2N(C3CN(Cc4ccnc(-c5nc(C)no5)c4)C3)C(=O)OC12C (stereo not shown) [Example 1.46, (2-[3-methyl-(1,2,4)oxadiazol-5-yl]pyridin-4-yl)methyl] | – | – | – | – | – | <0.06 | 0.25 (≈ 0.297 µM) | >64.00 | 8 (≈ 9.51 µM) | <0.06
11 | CCC1OC(=O)C(C)C(=O)C(C)C(OC2OC(C)CC(N(C)C)C2O)C(C)(OC)CC(C)C(=O)C(C)C2N(CC3CCN(Cc4c[nH]c(-c5ccccc5)n4)C3)C(=O)OC12C (stereo not shown) [13.08] | 4 (≈ 4.69 µM) | 0.5 (≈ 0.587 µM) | 64 (≈ 75.1 µM) | 2 (≈ 2.35 µM) | <0.06 | – | – | – | – | –
12 | CCC1OC(=O)C(C)C(=O)C(C)C(OC2OC(C)CC(N(C)C)C2O)C(C)(OC)CC(C)C(=O)C(C)C2N(C3CN(S(=O)(=O)c4ccc(OC)nc4)C3)C(=O)OC12C (stereo not shown) [Example 3.38, 6-methoxypyridine-3-sulfonyl] | – | – | – | – | – | 1 (≈ 1.19 µM) | <0.06 | 64 (≈ 76.3 µM) | 0.5 (≈ 0.596 µM) | <0.06
13 | CCC1OC(=O)C(C)C(=O)C(C)C(OC2OC(C)CC(N(C)C)C2O)C(C)(OC)CC(C)C(=O)C(C)C2N(CC3CCCN3C(=O)c3cc4ccncc4[nH]3)C(=O)OC12C (stereo not shown) [10.34] | 0.12 (≈ 0.143 µM) | 0.12 (≈ 0.143 µM) | >64.00 | 2 (≈ 2.38 µM) | <0.06 | – | – | – | – | –
14 | CCC1OC(=O)C(C)C(=O)C(C)C(OC2OC(C)CC(N(C)C)C2O)C(C)(OC)CC(C)C(=O)C(C)C2N(C3CN(S(=O)(=O)c4ccc(-n5cccn5)nc4)C3)C(=O)OC12C (stereo not shown) [Example 3.16, 3-descladinosyl-11,12-dideoxy-6-O-methyl-3-oxo-12,11-(oxycarbonyl-(1-(6-(1H-pyrazol-1-yl)pyridine-3-sulfonyl)-azetidin-3-yl)-imino)-erythromycin A] | – | – | – | – | – | <0.06 | <0.06 | 1 (≈ 1.14 µM) | 0.5 (≈ 0.571 µM) | <0.06
15 | CC[C@H]1OC(=O)[C@H](C)C(=O)[C@H](C)[C@@H](O[C@@H]2O[C@H](C)C[C@H](N(C)C)[C@H]2O)[C@](C)(OC)C[C@@H](C)C(=O)[C@H](C)[C@H]2N(CC3(C)CN(Cc4cccc5ncccc45)C3)C(=O)O[C@]12C [6.02] | – | – | – | – | – | <0.06 | 0.25 (≈ 0.299 µM) | 32 (≈ 38.2 µM) | 2 (≈ 2.39 µM) | <0.06
16 | CCC1OC(=O)C(C)C(=O)C(C)C(OC2OC(C)CC(N(C)C)C2O)C(C)(OC)CC(C)C(=O)C(C)C2N(C3CN(S(=O)(=O)c4ccc(-n5nc(C)c(=O)[nH]c5=O)cc4)C3)C(=O)OC12C (stereo not shown) [Example 3.14, 4-(4,5-dihydro-6-methyl-3,5-dioxo-1,2,4-triazin-2(3H)-yl)benzenesulfonyl] | – | – | – | – | – | 1 (≈ 1.07 µM) | 1 (≈ 1.07 µM) | >64.00 | 1 (≈ 1.07 µM) | <0.06
17 | CCC1OC(=O)C(C)C(=O)C(C)C(OC2OC(C)CC(N(C)C)C2O)C(C)(OC)CC(C)C(=O)C(C)C2N(C3CN(Cc4ccc(OC)c5nccnc45)C3)C(=O)OC12C (stereo not shown) [Example 1.105] | – | – | – | – | – | <0.063 | 0.125 (≈ 0.149 µM) | 8 (≈ 9.52 µM) | 1 (≈ 1.19 µM) | <0.063
18 | CCC1OC(=O)C(C)C(=O)C(C)C(OC2OC(C)CC(N(C)C)C2O)C(C)(OC)CC(C)C(=O)C(C)C2N(CC3CCCN3C(=O)c3ccnc4ccccc34)C(=O)OC12C.O=CO (stereo not shown) [10.10] | <0.06 | 1 | >64.00 | 4 | <0.06 | – | – | – | – | –
19 | CC[C@H]1OC(=O)[C@H](C)C(=O)[C@H](C)[C@@H](O[C@@H]2O[C@H](C)C[C@H](N(C)C)[C@H]2O)[C@](C)(OC)C[C@@H](C)C(=O)[C@H](C)[C@H]2N(CC3(O)CN(Cc4ccn(-c5cccnc5)n4)C3)C(=O)O[C@]12C [7.13] | 1 (≈ 1.17 µM) | 1 (≈ 1.17 µM) | >64.00 | 2 (≈ 2.34 µM) | <0.06 | – | – | – | – | –
20 | CCC1OC(=O)C(C)C(=O)C(C)C(OC2OC(C)CC(N(C)C)C2O)C(C)(OC)CC(C)C(=O)C(C)C2N(CC3CCN(Cc4cccc5nccnc45)C3)C(=O)OC12C [Example 11.02, 3-descladinosyl-11,12-dideoxy-6-O-methyl-3-oxo-12,11-(oxycarbonyl-(1-((quinoxalin-8-yl)-methyl)-((S)-pyrrolidin-3-yl)-methyl)-imino)-erythromycin A] | <0.06 | 0.25 (≈ 0.298 µM) | 4 (≈ 4.77 µM) | 0.5 (≈ 0.597 µM) | <0.06 | – | – | – | – | –
